# Measured values: publication PMC5244594 (Biotechnology for Biofuels, 2017)
# Target: T1, GLT-1 (Neurospora crassa, UniProt Q1K4S3)
# T1 construct: gene NCU01633
# Assay: radiolabeled glucose uptake in S. cerevisiae EBY.VW4000
# Format: cell-based
# Conditions: labelled compound; transport into whole yeast cells expressing the eGFP fusion
# T1 sequence (Q1K4S3 entry or part of it): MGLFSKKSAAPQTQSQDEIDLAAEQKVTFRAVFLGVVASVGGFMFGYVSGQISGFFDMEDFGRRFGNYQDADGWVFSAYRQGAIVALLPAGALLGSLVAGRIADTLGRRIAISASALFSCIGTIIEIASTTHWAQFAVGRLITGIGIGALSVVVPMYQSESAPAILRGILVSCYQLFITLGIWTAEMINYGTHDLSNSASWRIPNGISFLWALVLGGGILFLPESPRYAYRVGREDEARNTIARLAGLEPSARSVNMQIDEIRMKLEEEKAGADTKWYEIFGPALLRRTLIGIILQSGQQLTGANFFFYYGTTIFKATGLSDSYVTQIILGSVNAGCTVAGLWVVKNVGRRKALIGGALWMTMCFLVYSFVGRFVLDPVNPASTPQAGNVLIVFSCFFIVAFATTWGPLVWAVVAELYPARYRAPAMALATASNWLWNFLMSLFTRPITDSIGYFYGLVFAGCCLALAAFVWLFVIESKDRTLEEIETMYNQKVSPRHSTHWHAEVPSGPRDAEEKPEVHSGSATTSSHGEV
structure (smiles),measurement,value
OC[C@H]1OC(O)[C@H](O)[C@@H](O)[C@@H]1O (stereo partly shown) [glucose],Km,18.4 ± 3.38 mM
